These results are taken from PubChem BioAssay (NCI).

Some test systems named below: SF-539 CNS; UO-31 renal; IGROV1 ovarian; NCI-H23 lung; LOX IMVI melanoma; RPMI-8226 leukemia; K-562 leukemia; SNB-19 CNS; SK-MEL-2 melanoma; MDA-MB-231 breast; MCF7 breast; T-47D breast.
Holding throughout (assay): NCI-60 cell line screen, 48 h

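Tested at 5 concentrations; 48 h exposure; 96-well plates; endpoints linearly interpolated, else capped at highest concentration. TGI denotes the concentration required for complete inhibition of growth.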

For the compound `O=c1[nH]c(NCc2cccnc2)nc2nc[nH]c12`, the TGI in the assay with SF-539 CNS, with UO-31 renal, with IGROV1 ovarian, in the assay on NCI-H23 lung, in the assay with LOX IMVI melanoma and in the assay on RPMI-8226 leukemia was > 100 µM throughout. Besides, the TGI in the assay with K-562 leukemia, in the assay with SNB-19 CNS, in the assay on SK-MEL-2 melanoma, in the assay on MDA-MB-231 breast, in the assay with MCF7 breast and with T-47D breast was > 100 µM in each case.

`CC1CCN(C(C)C)P(=S)(Cc2ccccc2)O1` (configuration not stated): the TGI in the assay with SF-539 CNS, in the assay on UO-31 renal, in the assay with IGROV1 ovarian, in the assay with NCI-H23 lung, with LOX IMVI melanoma and in the assay with RPMI-8226 leukemia was > 100 µM each time. Besides, the TGI in the assay on K-562 leukemia was > 100 µM; in the assay on SNB-19 CNS it was > 100 µM; with SK-MEL-2 melanoma, > 100 µM; with MDA-MB-231 breast, > 100 µM; in the assay with MCF7 breast, > 100 µM; in the assay on T-47D breast, 56.8 µM.

For `COc1ccc(/C=C2\N=C(N3CCCC(CO)C3)NC2=O)cc1` (configuration not stated), the TGI in the assay with SF-539 CNS, in the assay with UO-31 renal, in the assay with IGROV1 ovarian, in the assay with NCI-H23 lung, with LOX IMVI melanoma and in the assay with RPMI-8226 leukemia was > 100 µM each time. Moreover, the TGI in the assay with SNB-19 CNS, in the assay with SK-MEL-2 melanoma, in the assay with MDA-MB-231 breast, with MCF7 breast and in the assay on T-47D breast was > 100 µM throughout.

Consider `O=C(Cc1ccc2ccccc2c1)NCc1ccc(C(=O)NCCc2ccccc2)cc1`, for which the TGI with UO-31 renal, in the assay with IGROV1 ovarian, in the assay on NCI-H23 lung, in the assay with LOX IMVI melanoma, in the assay with RPMI-8226 leukemia and with K-562 leukemia was > 100 µM each time. For the same compound, the TGI in the assay with SNB-19 CNS, with SK-MEL-2 melanoma, in the assay on MDA-MB-231 breast, in the assay on MCF7 breast and in the assay on T-47D breast was > 100 µM each time.

Take `O=C(Nc1ccccc1)N(CCN(Cc1ccccc1)C(=O)Nc1ccccc1)CCN(Nc1ccccc1)C(=O)Nc1ccccc1`: the TGI in the assay on UO-31 renal, with IGROV1 ovarian, in the assay with NCI-H23 lung, in the assay with LOX IMVI melanoma, in the assay on RPMI-8226 leukemia and with K-562 leukemia was > 100 µM in each case. Besides, the TGI with SNB-19 CNS, in the assay with SK-MEL-2 melanoma, in the assay with MDA-MB-231 breast, in the assay on MCF7 breast and in the assay on T-47D breast was > 100 µM throughout.

Take `O=c1onc2n1-c1ccc(Cl)cc1C(=S)N1CSCC21` (configuration not stated): the TGI with UO-31 renal was > 100 µM; in the assay on IGROV1 ovarian, > 100 µM; in the assay with LOX IMVI melanoma, > 100 µM; in the assay on RPMI-8226 leukemia, > 100 µM; with K-562 leukemia, > 100 µM; in the assay with SNB-19 CNS, 52.5 µM. The TGI was 69.6 µM with SK-MEL-2 melanoma, 41.8 µM in the assay on MDA-MB-231 breast, 96.9 µM in the assay on MCF7 breast and > 100 µM in the assay with T-47D breast.

Consider `COc1ccc(C(=O)/C=C/c2ccc(OCCCCCCCCCCOc3ccc(/C=C/C(=O)c4ccc(OC)cc4)cc3)cc2)cc1`, for which the TGI in the assay with SF-539 CNS, in the assay on UO-31 renal, in the assay with IGROV1 ovarian, in the assay with RPMI-8226 leukemia, in the assay on K-562 leukemia and with SNB-19 CNS was > 100 µM each time. Also, the TGI with SK-MEL-2 melanoma, in the assay with MDA-MB-231 breast, with MCF7 breast and in the assay with T-47D breast was > 100 µM in each case.

On to `Cc1cc(N(CCC#N)CCC#N)ccc1/C(N=Nc1ccc([N+](=O)[O-])cc1)=N\NC(=O)c1cc(Cl)ccc1O`, for which the TGI was > 100 µM in the assay with SF-539 CNS; 56.8 µM in the assay on UO-31 renal; > 100 µM in the assay on IGROV1 ovarian; 39.1 µM in the assay on NCI-H23 lung; > 100 µM with RPMI-8226 leukemia; > 100 µM with K-562 leukemia. The TGI in the assay on SNB-19 CNS is > 100 µM; in the assay on SK-MEL-2 melanoma, > 100 µM; in the assay on MDA-MB-231 breast, > 100 µM; in the assay with MCF7 breast, > 100 µM; in the assay with T-47D breast it was 97.9 µM.

In the case of `CCOP(=O)(CC(=O)C1CC1)OCC`, the TGI with SF-539 CNS, in the assay with UO-31 renal, with IGROV1 ovarian, with NCI-H23 lung, with LOX IMVI melanoma and with K-562 leukemia was > 100 µM throughout. For the same compound, the TGI in the assay on SNB-19 CNS, with SK-MEL-2 melanoma, in the assay on MDA-MB-231 breast, with MCF7 breast and with T-47D breast was > 100 µM throughout.

For the compound `Cc1nc2c(c(N3CCN(C)CC3)n1)Cc1ccccc1-2`, the TGI is > 100 µM with SF-539 CNS; 62.8 µM in the assay on UO-31 renal; > 100 µM with NCI-H23 lung; > 100 µM in the assay on RPMI-8226 leukemia; > 100 µM in the assay on K-562 leukemia; 74.6 µM in the assay with SNB-19 CNS. Moreover, the TGI with SK-MEL-2 melanoma, in the assay with MDA-MB-231 breast, with MCF7 breast and in the assay on T-47D breast was > 100 µM throughout.

For the compound `O=[N+]([O-])c1ncc(N(CCO)CCO)s1`, the TGI with SF-539 CNS was 30.7 µM; in the assay with UO-31 renal, > 100 µM; in the assay with NCI-H23 lung, > 100 µM; in the assay on LOX IMVI melanoma, 31.9 µM; with RPMI-8226 leukemia it was 44.8 µM; in the assay on K-562 leukemia it was 57.5 µM. Further, the TGI in the assay on SNB-19 CNS is > 100 µM; in the assay on SK-MEL-2 melanoma, 45.3 µM; in the assay on MDA-MB-231 breast, > 100 µM; with MCF7 breast it was > 100 µM; with T-47D breast, 81.8 µM.

Consider `C=C1C2CCC3C4(C)CCCC(C)(C(=O)O)C4CCC3(C2)C1OC(=O)/C(C)=C/C` (configuration not stated), for which the TGI with SF-539 CNS is 55.1 µM; in the assay on UO-31 renal it was 52.9 µM; with IGROV1 ovarian it was > 100 µM; in the assay on NCI-H23 lung, > 100 µM; in the assay on LOX IMVI melanoma, > 100 µM; with SK-MEL-2 melanoma, > 100 µM. Further, the TGI was 46.9 µM in the assay on MDA-MB-231 breast, 70.8 µM in the assay on MCF7 breast and > 100 µM in the assay with T-47D breast.

For `COc1ccc(S(=O)(=O)Nc2ccc(-c3csc(N4C(=O)/C(=C/c5ccccc5[N+](=O)[O-])N=C4c4ccccc4)n3)cc2)cc1Cl`, the TGI in the assay on SF-539 CNS is > 100 µM; in the assay on UO-31 renal, 73.8 µM; in the assay on IGROV1 ovarian it was > 100 µM; with NCI-H23 lung it was 76.8 µM; in the assay with LOX IMVI melanoma it was > 100 µM; with K-562 leukemia, > 100 µM. The TGI in the assay with SNB-19 CNS was > 100 µM; in the assay on SK-MEL-2 melanoma it was > 100 µM; with MDA-MB-231 breast, 78.5 µM; in the assay with MCF7 breast, > 100 µM; in the assay on T-47D breast, 75.2 µM.

On to `CCOC(=O)c1c(O)cn2c1[nH]c1cccc3cccc2c31`, for which the TGI with UO-31 renal, in the assay with IGROV1 ovarian, in the assay with NCI-H23 lung, with LOX IMVI melanoma, in the assay with RPMI-8226 leukemia and with K-562 leukemia was > 100 µM throughout. In addition, the TGI in the assay on SNB-19 CNS, in the assay on SK-MEL-2 melanoma, in the assay with MDA-MB-231 breast, with MCF7 breast and with T-47D breast was > 100 µM in each case.

As for `O=[N+]([O-])c1ccc(-c2csc(N=Nc3c(O)[nH]c4ccccc34)n2)cc1`, the TGI with SF-539 CNS is 39.3 µM; in the assay with UO-31 renal it was 39.2 µM; in the assay on IGROV1 ovarian it was 57.9 µM; in the assay on NCI-H23 lung, > 100 µM; with LOX IMVI melanoma it was > 100 µM; in the assay with SNB-19 CNS, > 100 µM. Further, the TGI is 84.2 µM with SK-MEL-2 melanoma, > 100 µM with MDA-MB-231 breast, > 100 µM in the assay with MCF7 breast and > 100 µM in the assay on T-47D breast.

For the compound `OC1NC2Nc3ccccc3NC2NC1O` (configuration not stated), the TGI with SF-539 CNS, with IGROV1 ovarian, with NCI-H23 lung, in the assay with LOX IMVI melanoma, with K-562 leukemia and in the assay with SNB-19 CNS was > 100 µM each time. Also, the TGI with SK-MEL-2 melanoma, in the assay on MDA-MB-231 breast, in the assay with MCF7 breast and with T-47D breast was > 100 µM each time.

As to `COC(=O)C1CCC(=O)N1C(c1ccc(OC)cc1)c1cc(OC)c(OC)c(OC)c1` (configuration not stated), the TGI in the assay on UO-31 renal was > 100 µM; in the assay on NCI-H23 lung, > 100 µM; in the assay on LOX IMVI melanoma, > 36.9 µM; with K-562 leukemia, > 75.8 µM; in the assay on SNB-19 CNS it was > 100 µM; in the assay on SK-MEL-2 melanoma, > 100 µM. Besides, the figures for the TGI with MDA-MB-231 breast, in the assay on MCF7 breast and with T-47D breast were 64.9 µM, > 100 µM and > 100 µM, respectively.

On to `Fc1cc(C2=Nn3c(COc4ccccc4Cl)nnc3S/C2=C\c2ccc(Cl)cc2)c(Cl)cc1Cl`, for which the TGI in the assay with SF-539 CNS was > 100 µM; in the assay with UO-31 renal, 93.8 µM; in the assay with IGROV1 ovarian, 33 µM; with NCI-H23 lung, 6.33 µM; with LOX IMVI melanoma it was 25.2 µM; in the assay with RPMI-8226 leukemia, > 100 µM. Besides, the TGI with K-562 leukemia is > 100 µM; with SK-MEL-2 melanoma it was 32.3 µM; in the assay on MDA-MB-231 breast, > 100 µM; in the assay on MCF7 breast, 83.4 µM; in the assay with T-47D breast, > 100 µM.

For the compound `CCOP(=O)(OCC)Oc1c(OC)c2[nH]c(C(=O)OC)cc2c2c(C(=O)O)c[nH]c12`, the TGI with SF-539 CNS, with UO-31 renal, in the assay on IGROV1 ovarian, in the assay on NCI-H23 lung, in the assay with LOX IMVI melanoma and in the assay with K-562 leukemia was > 100 µM throughout. In addition, the TGI in the assay with SNB-19 CNS, in the assay with SK-MEL-2 melanoma, in the assay with MDA-MB-231 breast, with MCF7 breast and with T-47D breast was > 100 µM each time.
